Consider four compounds from patent publication US4647457A, “Penicillanic acid derivatives” (Hoffmann-La Roche Inc., priority 1983, dated 1987).

Test [1] has as its target T1, β-lactamase from E. coli RTEM (Escherichia coli, UniProt P62593).
T1 construct: there is obtained a clear crude extract which can be used as the enzyme source; endogenous in cells; host or cells: E. coli RTEM, sonicated cells, clear crude extract
The test is described as follows: β-lactamase inhibition, nitrocefin cleavage, isolated enzyme from E. coli RTEM. The class given is biochemical. Conditions: 15 min pre-incubation, nitrocefin substrate, 37° C., pH 7.0. Here is the method:
(§1) Various β-lactamases can be isolated from penicillin-resistant or cephalosphorin-resistant strains of bacteria such as Klebsiella pneumoniae NCTC 418, Proteus vulgaris 1028 and E. coli RTEM. For this purpose, the corresponding strains are cultivated in Tryptic Soy Broth (Difco) and harvested by centrifugation in the late logarithmic growth phase (when required 50-100 mg/l of ampicillin are added to the medium towards the end of the log-phase in order to induce the β-lactamase). The thus-obtained bacteria mass is treated with 10 mM of phosphate buffer (pH 7.0); the cells are broken open with ultrasound (Biosonic III, Bronwill; 3-5 min. impulse) while cooling. The mixture is centrifuged (20,000 r/min.) for 20-30 minutes and there is obtained a clear crude extract which can be used as the enzyme source (β-lactamase source) and which can be frozen at -20° C. for several months without loss of activity.
(§2) The determination of the activity of the isolated β-lactamases can be carried out according to the method of O'Callaghan, C. H. et al. [Antimicr. Ag. Chemother. 1, 283-288 (1972)] with the chromogenic cephalosporin nitrocefin (Glaxo). The required experimental batch contains per ml of water: 50 mM of phosphate buffer (pH 7.0), 0.1 mM of nitrocefin and sufficient enzyme (β-lactamase) in order to attain a ΔA/min. of about 0.1. The cleavage of the substrate, which is associated with a colour change, is carried out at 37° C. and is followed quantitatively at 482 nm with a spectral photometer.
(§3) The above-described cleavage of the chromogenic substrate by β-lactamases (experiment B) can be inhibited by adding compounds of formula I (inhibitors). Since it has been shown that the inhibitors irreversibly inactivate the β-lactamase in a time-dependent reaction, the reaction (cleavage of the substrate) is started by adding the substrate, in each case after a pre-incubation period of β-lactamase with inhibitor of 15 minutes. The determination of the β-lactamase-inhibiting activity of compounds of formula I in which R^1 signifies a group readily cleavable by hydrolysis is carried out in each case in the presence or absence of an esterase. As a measurement for the affinity of the respective tested inhibitor to the β-lactamase, which represents a measurement of the strength of the inhibitor, there serves that concentration which inhibits to 50% (IC 50 in μM/l) the cleavage of the substrate (nitrocefin) carried out under the above experimental conditions (experiment B) in the absence of an inhibitor. 4 to 6 experiments with differing concentrations of inhibitor were carried out in order to determine the IC 50. The determination of the IC 50 was carried out graphically.

In test [2] the target is β-lactamase from Proteus vulgaris 1028. The test is described as follows: β-lactamase inhibition, nitrocefin cleavage, isolated enzyme from P. vulgaris 1028. The class given is biochemical. Conditions: 15 min pre-incubation, nitrocefin substrate, 37° C., pH 7.0. Here is the method:
as §1, §2, §3

Setting [3] is: in the absence of an esterase, read-out: β-Lactamase inhibition IC50, P. vulgaris 1028, -E.
Where [4] appears, read: in the presence of an esterase, read-out: β-Lactamase inhibition IC50, P. vulgaris 1028, +E.

pIC50: −log10 of the molar value. Like-named read-outs stand apart in the source and are kept apart here.

T1 sequence (P62593 24-286 limits assumed): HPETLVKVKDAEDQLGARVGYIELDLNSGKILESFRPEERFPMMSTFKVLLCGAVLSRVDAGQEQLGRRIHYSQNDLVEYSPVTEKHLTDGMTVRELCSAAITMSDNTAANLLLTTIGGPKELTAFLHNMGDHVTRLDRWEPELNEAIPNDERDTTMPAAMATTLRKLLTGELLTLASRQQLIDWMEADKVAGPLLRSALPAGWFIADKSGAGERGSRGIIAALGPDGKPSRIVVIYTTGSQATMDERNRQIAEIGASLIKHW

By pIC50 is commonly meant the negative decadic logarithm of the IC50, by convention in mol/L. In the case of `CC(=O)C[C@@]1(SC(C)=O)C(=O)N2[C@@H](C(=O)OCOC(=O)C(C)(C)C)C(C)(C)S[C@@H]21` [Example 5, methylene-(2S,5R,6R)-6-acetonyl-6-acetylthio-penicillanate pivalate], the pIC50 in test [1] (in the absence of an esterase) was 6.15; in test [1] (in the presence of an esterase), 8.00; in test [2] (setting [3]), 5.38; in test [2] (setting [4]), 6.70.

As to `CC(=O)C[C@]1(Sc2ccccc2)C(=O)N2[C@@H](C(=O)OCOC(=O)C(C)(C)C)C(C)(C)S[C@@H]21` [Example 4, methylene-(2S,5R,6S)-6-acetonyl-6-phenylthio-penicillanate pivalate], the pIC50 was 6.10 in test [1] (in the absence of an esterase), 8.70 in test [1] (in the presence of an esterase), 5.43 in test [2] (setting [3]) and 6.52 in test [2] (setting [4]).

Take `CC(C=C1C(=O)N2[C@@H]1SC(C)(C)[C@@H]2C(=O)OCOC(=O)C(C)(C)C)=NO` [Example 1, methylene-(2S,5R)-6-[2-(hydroxyimino)propylidene]pencillanate pivalate]: the pIC50 in test [1] (in the absence of an esterase) is 7.22; in test [1] (in the presence of an esterase) it was 8.70; in test [2] (setting [3]), 6.34; in test [2] (setting [4]), 7.46.

As for `CC(=O)C[C@]1(N2CCOCC2)C(=O)N2[C@@H](C(=O)OCOC(=O)C(C)(C)C)C(C)(C)S[C@@H]21` [Example 3, methylene-(2S,5R,6S)-6-acetonyl-6-morpholino-penicillanate pivalate], the pIC50 in test [1] (in the absence of an esterase) was 6.05; in test [1] (in the presence of an esterase), 8.00; in test [2] (setting [3]) it was 5.39; in test [2] (setting [4]), 7.00.
